# Measured values as given in DBAASP.
# Key:
# Assay in all cases: ≥ marks a high value that may be exact or a test limit, other limits are often not marked, values filed in µg/mL are converted to µM
# [1] = tested on: Pseudomonas aeruginosa ATCC 19660
# [2] = tested on: Streptococcus agalactiae 819
# [3] = tested on: Enterococcus faecalis BCRC 10066
# [4] = tested on: Streptococcus agalactiae BCRC 10787
# [5] = tested on: Aeromonas hydrophila BCRC 13018
# Vibrio alginolyticus = tested on: Vibrio alginolyticus
# Vibrio vulnificus 204 = tested on: Vibrio vulnificus 204
# [6] = tested on: Staphylococcus sp. BCRC 10451
# [7] = tested on: Vibrio harveyi BCRC 13812
# [8] = tested on: Micrococcus luteus BCRC 11034
# Streptococcus agalactiae = tested on: Streptococcus agalactiae
# [9] = tested on: Staphylococcus aureus BCRC 10780
# Staphylococcus aureus = tested on: Staphylococcus aureus
# [10] = tested on: Streptococcus pneumoniae BCRC 10794
# Pseudomonas aeruginosa = tested on: Pseudomonas aeruginosa
# [11] = tested on: Stenotrophomonas maltophilia
# [12] = tested on: Escherichia coli ATCC 25922
# [13] = tested on: Acinetobacter baumannii I NM8
# [14] = tested on: Klebsiella pneumoniae ATCC 700603
# [15] = tested on: Pseudomonas aeruginosa ATCC 27853
# [16] = tested on: Streptococcus mutans ATCC 10449
# [17] = tested on: Candida albicans NCTC 3179
# [18] = tested on: Enterococcus faecalis NCTC 12697
# [19] = tested on: Fusobacterium nucleatum NCTC 10562
# [20] = tested on: Staphylococcus aureus ATCC 25923
# [21] = tested on: Pseudomonas aeruginosa PAO239
# Escherichia coli = tested on: Escherichia coli
# Bacillus anthracis = tested on: Bacillus anthracis
# Bacillus cereus = tested on: Bacillus cereus
# Candida albicans CA14 = tested on: Candida albicans CA14
# Bacillus subtilis 168 = tested on: Bacillus subtilis 168
# [22] = tested on: Malassezia sympodialis ATCC 42132
# [23] = tested on: Saccharomyces cerevisiae BY4741
# Escherichia coli K-12 = tested on: Escherichia coli K-12
# [24] = tested on: Staphylococcus aureus RN4220
# [25] = tested on: Escherichia coli KCTC 1682
# [26] = tested on: Bacillus subtilis KCTC 3068
# [27] = tested on: Salmonella typhimurium KCTC 1926
# [28] = tested on: Pseudomonas aeruginosa KCTC 1637
# [29] = tested on: Staphylococcus aureus KCTC 1621
# [30] = tested on: Staphylococcus epidermidis KCTC 1917
# Streptococcus mutans = tested on: Streptococcus mutans
# [31] = tested on: Streptococcus mitis ATCC 903
# [32] = tested on: Streptococcus sanguinis NY101
# [33] = tested on: Lacticaseibacillus casei ATCC 4646
# [34] = tested on: Veillonella atypica PK1910
# [35] = tested on: Streptococcus gordonii Challis DL1
smiles,measurement,setting,value
CC[C@H](C)[C@H](NC(=O)[C@H](C)NC(=O)[C@H](CCCN=C(N)N)NC(=O)[C@H](Cc1cnc[nH]1)NC(=O)[C@@H](NC(=O)[C@H](C)NC(=O)[C@H](CCCN=C(N)N)NC(=O)[C@@H](NC(=O)CNC(=O)[C@H](Cc1cnc[nH]1)NC(=O)[C@H](CO)NC(=O)[C@@H](NC(=O)[C@H](Cc1c[nH]c2ccccc12)NC(=O)CNC(=O)[C@@H](NC(=O)[C@@H](NC(=O)[C@H](Cc1cnc[nH]1)NC(=O)[C@H](Cc1cnc[nH]1)NC(=O)[C@@H](NC(=O)[C@@H](N)Cc1ccccc1)[C@@H](C)CC)[C@@H](C)CC)[C@@H](C)CC)[C@@H](C)CC)C(C)C)[C@@H](C)CC)C(=O)N[C@@H](Cc1cnc[nH]1)C(=O)NCC(N)=O [FIHHIIGWISHGVRAIHRAIHG],MIC,[1],7.82 µM
same,MIC,[2],3.91 µM
same,MIC,[3],3.91 µM
same,MIC,[4],0.123 µM
same,MIC,[5],7.82 µM
same,MIC,Vibrio alginolyticus,0.49 µM
same,MIC,Vibrio vulnificus 204,0.245 µM
CC[C@H](C)[C@H](NC(=O)[C@H](CCSC)NC(=O)[C@H](CCCCN)NC(=O)CNC(=O)[C@H](C)NC(=O)[C@H](Cc1cnc[nH]1)NC(=O)[C@H](Cc1ccccc1)NC(=O)[C@H](CC(C)C)NC(=O)CNC(=O)[C@H](CCCCN)NC(=O)[C@@H](NC(=O)[C@@H](NC(=O)[C@H](Cc1cnc[nH]1)NC(=O)[C@H](Cc1ccccc1)NC(=O)[C@@H](NC(=O)[C@H](Cc1ccccc1)NC(=O)CNC(C)=O)[C@@H](C)CC)[C@@H](C)CC)[C@@H](C)CC)C(=O)N[C@@H](Cc1cnc[nH]1)C(=O)NCC(=O)N[C@@H](CC(C)C)C(=O)N[C@H](C(N)=O)C(C)C [GFIFHIIKGLFHAGKMIHGLV],MIC,[6],2.68 µM
same,MIC,[7],2.68 µM
same,MIC,[8],2.68 µM
same,MIC,Streptococcus agalactiae,≥ 42.8 µM
same,MIC,[9],21.4 µM
same,MIC,Staphylococcus aureus,5.35 µM
same,MIC,[10],21.4 µM
same,MIC,Vibrio alginolyticus,2.68 µM
same,MIC,Pseudomonas aeruginosa,5.35 µM
same,MIC,Vibrio vulnificus 204,21.4 µM
CC[C@H](C)[C@H](NC(=O)[C@H](CCCCN)NC(=O)[C@H](CC(C)C)NC(=O)[C@H](C)NC(=O)[C@H](CCCCN)NC(=O)CNC(=O)[C@H](CC(C)C)NC(=O)[C@@H](NC(=O)[C@H](CO)NC(=O)CNC(=O)[C@H](CC(C)C)NC(=O)CN)C(C)C)C(=O)NCC(=O)N[C@@H](C)C(=O)N[C@@H](CC(N)=O)C(=O)N[C@@H](CC(C)C)C(=O)N[C@@H](CC(C)C)C(N)=O [GLGSVLGKALKIGANLL],MIC,[11],4 µM
same,MIC,[12],12.5 µM
same,MIC,[13],6 µM
same,MIC,[14],25 µM
same,MIC,[15],25 µM
same,MIC,[16],3.1 µM
same,MIC,[17],≥ 50 µM
same,MIC,[18],≥ 100 µM
same,MIC,[19],6.25 µM
same,MIC,[20],6 µM
same,MIC,[21],25 µM
CC(C)C[C@H](NC(=O)[C@H](Cc1ccccc1)NC(=O)[C@@H]1CCCN1C(=O)[C@H](Cc1ccccc1)NC(=O)[C@@H](NC(=O)[C@H](Cc1ccccc1)NC(=O)[C@H](CC(C)C)NC(=O)[C@@H](NC(=O)[C@H](CCCCN)NC(=O)[C@@H](NC(=O)[C@H](CCCCN)NC(=O)[C@H](CCCCN)NC(=O)[C@H](C)NC(=O)CNC(=O)[C@H](C)NC(=O)[C@@H](NC(=O)[C@H](CO)NC(=O)[C@@H](NC(=O)CN)C(C)C)C(C)C)C(C)C)C(C)C)C(C)C)C(=O)N[C@@H](Cc1ccccc1)C(=O)O [GVSVAGAKKVKVLFVFPFLF],MIC,Escherichia coli,> 119 µM
same,MIC,Bacillus anthracis,≥ 119 µM
same,MIC,Staphylococcus aureus,> 119 µM
same,MIC,Bacillus cereus,≥ 119 µM
CC[C@H](C)[C@H](NC(=O)[C@H](CCCN=C(N)N)NC(=O)[C@H](CCCN=C(N)N)NC(=O)[C@H](CCCN=C(N)N)NC(=O)[C@H](CC(C)C)NC(=O)[C@@H](NC(=O)[C@@H](NC(=O)[C@H](CC(C)C)NC(=O)[C@@H](N)CC(C)C)[C@@H](C)CC)[C@@H](C)CC)C(=O)N[C@@H](CCCN=C(N)N)C(=O)N[C@@H](CCCCN)C(=O)N[C@@H](CCC(N)=O)C(=O)N[C@@H](C)C(=O)N[C@@H](Cc1cnc[nH]1)C(=O)N[C@@H](C)C(=O)N[C@@H](Cc1cnc[nH]1)C(=O)N[C@@H](CO)C(=O)N[C@@H](CCCCN)C(N)=O [LLIILRRRIRKQAHAHSK],MIC,Candida albicans CA14,10 µM
same,MIC,Bacillus subtilis 168,10 µM
same,MIC,[22],4.98 µM
same,MIC,[23],10 µM
same,MIC,Escherichia coli K-12,10 µM
same,MIC,[24],10 µM
same,MIC,[25],16 µM
same,MIC,[26],4 µM
same,MIC,[27],4 µM
same,MIC,[28],8 µM
same,MIC,[29],4 µM
same,MIC,[30],8 µM
CC(C)C[C@H](NC(=O)[C@H](CC(C)C)NC(=O)[C@H](Cc1cnc[nH]1)NC(=O)[C@H](Cc1cnc[nH]1)NC(=O)[C@H](CC(C)C)NC(=O)[C@H](CCCCN)NC(=O)[C@H](CCCCN)NC(=O)[C@H](CC(C)C)NC(=O)[C@H](CC(C)C)NC(=O)[C@H](CCCN=C(N)N)NC(=O)[C@H](CCCN=C(N)N)NC(=O)[C@H](Cc1c[nH]c2ccccc12)NC(=O)[C@@H](N)CCCN=C(N)N)C(=O)N[C@@H](Cc1cnc[nH]1)C(=O)NCC(=O)NCC(=O)NCC(=O)N[C@@H](Cc1ccccc1)C(=O)N[C@@H](CCCCN)C(=O)N[C@@H](CCCCN)C(=O)N[C@@H](Cc1ccccc1)C(=O)N[C@@H](Cc1c[nH]c2ccccc12)C(=O)N[C@@H](CCCCN)C(=O)N[C@@H](Cc1c[nH]c2ccccc12)C(=O)N[C@@H](Cc1ccccc1)C(=O)N[C@@H](CCCN=C(N)N)C(=O)N[C@@H](CCCN=C(N)N)C(=O)N[C@@H](Cc1ccccc1)C(N)=O [RWRRLLKKLHHLLHGGGFKKFWKWFRRF],MIC,Streptococcus mutans,1.51 µM
same,MIC,[31],8.57 µM
same,MIC,[32],4.28 µM
same,MIC,[33],2.14 µM
same,MIC,[34],2.14 µM
same,MIC,[35],4.28 µM
